Experimental data as given in patent US20060078622A1, “Pharmaceutical formulations containing microparticles or nanoparticles of a delivery agent” (priority 2004, published 2006).

Tests used:
[1] = acid and salts; cited from earlier work
[2] = Particle size determination by laser diffraction (Malvern Mastersizer 2000); format: physicochemical
Procedure: The terms “diameter” and “median particle size” are generally used to refer to the dimensions of particles, micro-beads, and granules. The “median particle size” or “diameter” was determined as follows for Examples 8, 9, 10.
The Malvern Mastersizer 2000 determines particle size by laser diffraction and model fitting. A well-dispersed sample in any two-phase system (e.g., powders, suspensions, or emulsions) is introduced into the path of a He—Ne laser focused with a lens of a length suitable for particle sizes present in the sample. The scattering pattern of particles in the laser path is measured by an array of detectors, with each detector measuring data from a particular range of angles.
The Malvern apparatus assumes that the particles being measured are perfect spheres. For non-spherical particles the resulting particle size distribution may be different from those obtained by methods based on others principles. The electronic measurements will often have to be accompanied by microscopic investigation to determine the type of particles being investigated. For irregularly shaped particles, the particle size data obtained from Mastersizer 2000 will be interpreted as the diameter of an imaginary sphere that is equivalent in volume to the measured particle. (Note: d(0.1) is the size of particle for which 10% of the sample is below this size, d(0.5) is the size of particle for which 50% of the sample is below this size, and d(0.9) is the size of particle for which 90% of the sample is below this size.
Generally, this apparatus measures one dimension of a, e.g., particle as it travels past a laser; i.e., it measures the length of a straight line through the particle. […] However, a measurement is taken of a number of particles and a median diameter or size is calculated. Thus, “size” or “diameter” figures are estimates of the median “size” or “diameter” of particles. Alternatively, “diameter” or “size” was measured by a sieve method described in Example 1. “Diameter” should not be read to necessarily imply a spherical shape or a circular dimension, though in certain embodiments, e.g., particles may have rounded edges or generally spherical shapes.
(§1) SNAD was screened through a 35 mesh Tyler standard sieve. The SNAD was milled with a Glen Mills, Model S100 centrifugal ball mill (Clifton, N.J.) equipped with a 250 mL stainless steel grinding jar and 30 mm (440 c) diameter stainless steel balls was used. The process parameters investigated were (1) number of balls used, (2) duration of milling, (3) milling speed, and (4) milling jar total charge. A Malvern Mastersizer 2000 equipped with a Scirocco 2000 dry accessory was used for particle size determination. A Kratos XRD 6000 (version 4.1) X-ray powder diffractometer scanning over the 2θ range 5-40° 2θ was used for monitoring crystallinity changes. The diverging, scattering, and receiving slits were 1°, 1°, and 0.3 mm respectively. A Brinkmann 737 KF coulometer was used for moisture content determination while a Quantachrome Nova 3000 Series Surface Area Analyzer was used for specific surface area determination.

[3] = in vivo; cited from earlier work
[4] = X-ray powder diffraction and Karl Fischer moisture content after milling; format: physicochemical; conditions: ball milled
Procedure: as §1, with “The diverging, scattering, and receiving slits were 1°, 1°, and 0.3 mm respectively.” left out

[5] = ball milled, milling time of 120 minutes

## O=C(O)CCCCCCCNC(=O)c1cc(Cl)ccc1O [5 CNAC acid, N-(5-chlorosalicyloyl)-8-aminocaprylic acid]
[1]
  water solubility: very water soluble

## O=C([O-])CCCCCCCNC(=O)c1ccccc1O.[Na+] [SNAC, monosodium salt of N-(8-[2-hydroxybenzoyl]-amino)caprylic acid]
[2]; micronized, 2 balls at 200 rpm for 120 minutes
  particle size d(0.5): 7.574 μm

## O=C(O)CCCCCCCCCNC(=O)c1ccccc1O [SNAD acid, N-(10-[2-hydroxybenzoyl]-amino) decanoic acid]
[3]
  absorbed by the gastro-intestinal tract: greater than 90%

## O=C([O-])CCCCCCCCCNC(=O)c1ccccc1O.[Na+] [SNAD, monosodium salt of N-(10-[2-hydroxybenzoyl]-amino)decanoic acid]
[4]
  changes in moisture content on milling (Karl Fischer): no significant changes in moisture content
  crystallinity changes on milling (powder X-ray diffraction): did not result in crystallinity changes
[2]; ball milled at 300 rpm
  particle size d(0.9): 62.9 μm
[2]; ball milled, 2 balls
  particle size d(0.1): 1.1 μm
  particle size d(0.5): 12.0 μm
  particle size d(0.9): 154.3 μm
[2]; [5]
  particle size d(0.1): 2.0 μm
  particle size d(0.5): 15.4 μm
  particle size d(0.9): 62.9 μm
[2]; pre-screened (unmilled)
  particle size d(0.1): 1.6 μm
  particle size d(0.5): 10.5 μm
  particle size d(0.9): 314.9 μm
